Experimental data: patent US10118935B2, “Melampomagnolide B dimers” (priority 2014, dated 2018)
Like-named read-outs stand apart in the source and are kept apart here.

Columns and labels:
[1] = test system: HL-60(TB); conditions: for CC50: read-out: LC50
[2] = test system: NCI-H322M
[3] = test system: SNB-19
[4] = test system: M9ENL AML cell lines; conditions: read-out: LC50; M9ENL AML cell lines; after 24 hours of drug exposure
[5] = test system: K-562; assay: NCI 60 cell line five dose, Leukemia
[6] = test system: M14; assay: NCI 60 cell line five dose, Melanoma
[7] = test system: SK-MEL-2; assay: NCI 60 cell line five dose, Melanoma
[8] = test system: SK-MEL-28; assay: NCI 60 cell line five dose, Melanoma; conditions: SK-MEL-28
[9] = test system: UACC-62; assay: NCI 60 cell line five dose, Melanoma
[10] = test system: SF-268; assay: NCI 60 cell line five dose, CNS Cancer
[11] = test system: SNB-75; assay: NCI 60 cell line five dose, CNS Cancer
[12] = test system: HCT-15; assay: NCI 60 cell line five dose, Colon Cancer
[13] = test system: HT29; assay: NCI 60 cell line five dose, Colon Cancer
[14] = test system: SW-620; assay: NCI 60 cell line five dose, Colon Cancer
[15] = test system: 786-0; assay: NCI 60 cell line five dose, Renal Cancer
[16] = test system: RXF 393; assay: NCI 60 cell line five dose, Renal Cancer
[17] = test system: UO-31; assay: NCI 60 cell line five dose, Renal Cancer
[18] = test system: MCF7; assay: NCI 60 cell line five dose, Breast Cancer
[19] = test system: HS 578T; assay: NCI 60 cell line five dose, Breast Cancer; conditions: HS 578T
[20] = test system: MDA-MB-468; assay: NCI 60 cell line five dose, Breast Cancer
[21] = test system: SK-OV-3; assay: NCI 60 cell line five dose, Ovarian Cancer
[22] = test system: PC-3; assay: NCI 60 cell line five dose, Prostate Cancer; conditions: for CC50: read-out: LC50
[23] = test system: DU-145; assay: NCI 60 cell line five dose, Prostate Cancer
[24] = test system: NCI-H322M; assay: NCI 60 cell line five dose, Non-Small Cell Lung Cancer
[25] = test system: NCI-H522; assay: as above

In the case of `C=C1C(=O)O[C@H]2[C@H]1CC/C(COC(=O)NCCCCCNC(=O)OC/C1=C/CC[C@@]3(C)O[C@H]3[C@H]3OC(=O)C(=C)[C@@H]3CC1)=C\CC[C@@]1(C)O[C@@H]21` [JVM 2-76, bis(((1aR,7aS,10aS,10bS,E)-1a-Methyl-8-methylene-9-oxo-1a,2,3,6,7,7a,8,9,10a,10b-decahydrooxireno[2′,3′:9,10]cyclodeca[1,2-b]furan-5-yl)methyl)pentane-1,5-diyldicarbamate], the GI50 [1] is reported as 0.31 µM, the TGI [1] is reported as 1.71 µM and the CC50 [1] is reported as greater than 100 µM. For the same compound, the CC50 [2] was greater than 100 µM, the GI50 ([3]; SNB-19) was 3.97 µM and the TGI ([3]; SNB-19) was 19.0 µM. It also gave a CC50 ([3]; read-out: LC50, SNB-19) of 92.5 µM, a CC50 [4] of 1.35 µM and a GI50 [5] of 0.56 µM. It also gave a TGI [5] of 16.1 µM, a CC50 ([5]; read-out: LC50) greater than 100 µM and a GI50 [6] of 1.71 µM. It also gave a TGI [6] of 3.74 µM, a CC50 ([6]; read-out: LC50) of 8.2 µM and a GI50 [7] of 2.01 µM. The TGI [7] was 3.96 µM, the CC50 ([7]; read-out: LC50) was 7.81 µM and the GI50 [8] was 1.58 µM. For the same compound, the TGI [8] was 4.13 µM, the CC50 ([8]; read-out: LC50) was 12.6 µM and the GI50 [9] was 1.41 µM. The TGI [9] was 3.16 µM, the CC50 ([9]; read-out: LC50) was 7.04 µM and the GI50 [10] was 3.08 µM. It also gave a TGI [10] of 12.0 µM, a CC50 ([10]; read-out: LC50) of 42.3 µM and a GI50 [11] of 2.2 µM. The TGI [11] was 11.4 µM, the CC50 ([11]; read-out: LC50) was 33.8 µM and the GI50 [12] was 6.18 µM. It also gave a TGI [12] of 20.7 µM, a CC50 ([12]; read-out: LC50) of 49.8 µM and a GI50 [13] of 0.51 µM. It also gave a TGI [13] of 1.78 µM, a CC50 ([13]; read-out: LC50) of 4.85 µM and a GI50 [14] of 0.43 µM. It also gave a TGI [14] of 1.75 µM, a CC50 ([14]; read-out: LC50) of 5.14 µM and a GI50 [15] of 1.57 µM. For the same compound, the TGI [15] was 3.17 µM, the CC50 ([15]; read-out: LC50) was 6.39 µM and the GI50 [16] was 0.85 µM. For the same compound, the TGI [16] was 2.43 µM, the CC50 ([16]; read-out: LC50) was 6.35 µM and the GI50 [17] was 8.9 µM. The TGI [17] was 22.5 µM, the CC50 ([17]; read-out: LC50) was 52.3 µM and the GI50 [18] was 0.39 µM. It also gave a TGI [18] of 1.93 µM, a CC50 ([18]; read-out: LC50) of 6.2 µM and a GI50 [19] of 2.91 µM. It also gave a TGI [19] of 13.0 µM, a CC50 ([19]; read-out: LC50) greater than 100 µM and a GI50 [20] of 1.06 µM. It also gave a TGI [20] of 3.96 µM, a CC50 ([20]; read-out: LC50) of 24.7 µM and a GI50 [21] of 5.99 µM. For the same compound, the TGI [21] was 19.7 µM, the CC50 ([21]; read-out: LC50) was 49.9 µM and the GI50 [22] was 3.79 µM. It also gave a TGI [22] of 15.6 µM, a CC50 [22] of 49.4 µM and a GI50 [23] of 3.06 µM. For the same compound, the TGI [23] was 9.55 µM, the CC50 ([23]; read-out: LC50) was 32.6 µM and the GI50 [24] was 16.4 µM. It also gave a TGI [24] of 41.6 µM, a GI50 [25] of 0.22 µM and a TGI [25] of 0.44 µM. The CC50 ([25]; read-out: LC50) was 0.88 µM.

With `C=C1C(=O)O[C@H]2[C@H]1CC/C(COC(=O)CCC(=O)NCCCCCCCCNC(=O)CCC(=O)OC/C1=C/CC[C@@]3(C)O[C@H]3[C@H]3OC(=O)C(=C)[C@@H]3CC1)=C\CC[C@@]1(C)O[C@@H]21` [JVM 2-87, bis(((1aR,7aS,10aS,10bS,E)-1a-Methyl-8-methylene-9-oxo-1a,2,3,6,7,7a,8,9,10a,1b-decahydrooxireno[2′,3′:9,10]cyclodeca[1,2-b]furan-5-yl)methyl)4,4′-(octane-1,8-diylbis(azanediyl))bis(4-oxobutanoate)] the GI50 [1] was 0.63 µM, the TGI [1] was 3.12 µM and the CC50 [1] was greater than 100 µM. The CC50 [2] was 60.5 µM, the CC50 [3] was greater than 100 µM and the GI50 ([3]; SNB-19) was 4.15 µM. The TGI ([3]; SNB-19) was 19.9 µM, the GI50 [5] was 0.97 µM and the TGI [5] was 12.9 µM. It also gave a GI50 [6] of 1.79 µM, a TGI [6] of 3.79 µM and a GI50 [7] of 2.25 µM. For the same compound, the TGI [7] was 4.59 µM, the GI50 [8] was 1.65 µM and the TGI [8] was 3.23 µM. For the same compound, the GI50 [9] was 1.97 µM, the TGI [9] was 4.20 µM and the GI50 [10] was 3.34 µM. The TGI [10] was 11.6 µM, the GI50 [11] was 2.02 µM and the TGI [11] was 7.25 µM. For the same compound, the GI50 [12] was 3.6 µM, the TGI [12] was 15.6 µM and the GI50 [13] was 1.64 µM. For the same compound, the TGI [13] was 3.12 µM, the GI50 [14] was 1.22 µM and the TGI [14] was 2.97 µM. For the same compound, the GI50 [15] was 1.62 µM, the TGI [15] was 3.29 µM and the GI50 [16] was 0.85 µM. For the same compound, the TGI [16] was 2.61 µM, the GI50 [17] was 10.9 µM and the TGI [17] was 24.2 µM. The GI50 [18] was 0.77 µM, the TGI [18] was 2.47 µM and the GI50 [19] was 3.88 µM. The TGI [19] was 29.5 µM, the GI50 [20] was 1.33 µM and the TGI [20] was 3.84 µM. For the same compound, the GI50 [21] was 6.45 µM, the TGI [21] was 19.7 µM and the GI50 [22] was 3.64 µM. It also gave a TGI [22] of 13.7 µM, a CC50 [22] of 40.7 µM and a GI50 [23] of 1.92 µM. It also gave a TGI [23] of 3.61 µM, a GI50 [24] of 16.3 µM and a TGI [24] of 31.4 µM. The GI50 [25] was 0.48 µM and the TGI [25] was 1.80 µM.
